For assay [1], the target named is T1, plasminogen (Homo sapiens, UniProt P00747). Kind of assay: Measurement of plasminogen activation by urokinase catalysis, VLK-pNA hydrolysis (Example 5). It is filed as biochemical. Conditions: 50 μM, 100 μM and 200 μM, 37° C., 60 minutes. As for the experimental part: (§1) The fibrinolysis enhancing activity of SMTP-0 (50 μM, 100 μM and 200 μM) obtained in Example 2 was evaluated as follows, as the activity for promoting the plasminogen activation by urokinase catalysis.
(§2) A 30 mM solution of SMTP (DMSO solution) was diluted with TBS/T (50 mM Tris-HCl, 100 mM NaCl and 0.01% Tween80, pH 7.4) to prepare a 1.5 mM solution (in 5% DMSO·TBS/T). This solution was diluted with 5% DMSO in TBS/T to prepare SMTP solutions at the concentrations mentioned above.
(2) Measurement of Plasminogen Activation
10 μl of an SMTP solution (10 μl) was mixed with 40 μl of a reaction liquid at a 1.25-fold concentration (0.0625 μM of plasminogen, 62.5 U/ml of urokinase, and 0.125 mM of VLK-pNA) in a 96-well microplate, and measurement was made by immediately monitoring the absorption of the hydrolysis of VLK-pNA at 405 nm over time with a microplate reader. The measurement was performed at 37° C. for 60 minutes at an interval of 2 minutes.

The target in assay [2] is T1, plasminogen. Kind of assay: Measurement of activity of plasminogen fragment production (Example 5). It is filed as biochemical. Conditions: 50 μM, 100 μM and 200 μM; 60 minutes at 37° C., SDS polyacrylamide gel electrophoresis. As for the experimental part:
as §1, §2
(1) Measurement of Activity of Plasminogen Fragment Production
An SMTP solution (60 μl) was mixed with 240 μl of a reaction liquid at a 1.25-fold concentration (not containing VLK-pNA (Val-Leu-Lys-p-nitroanilide)), and the mixture was allowed to react for 60 minutes at 37° C. Then, 75 μl of 50% trichloroacetic acid (TCA) was added to terminate the reaction, and the mixture was left to stand in ice for 60 minutes. TCA-insoluble materials were precipitated by centrifugation, and the precipitate was washed two times with acetone. The obtained precipitate was dried, and then dissolved with 11 μl of added SDS sample buffer (0.125 M Tris-Cl, pH 6.8, 4% SDS, 20% glycerol and 0.02% bromophenol blue). 10 μl of the solution was used to perform SDS polyacrylamide gel electrophoresis (10% gel).

T1 sequence (P00747 20-810 limits assumed, species assumed): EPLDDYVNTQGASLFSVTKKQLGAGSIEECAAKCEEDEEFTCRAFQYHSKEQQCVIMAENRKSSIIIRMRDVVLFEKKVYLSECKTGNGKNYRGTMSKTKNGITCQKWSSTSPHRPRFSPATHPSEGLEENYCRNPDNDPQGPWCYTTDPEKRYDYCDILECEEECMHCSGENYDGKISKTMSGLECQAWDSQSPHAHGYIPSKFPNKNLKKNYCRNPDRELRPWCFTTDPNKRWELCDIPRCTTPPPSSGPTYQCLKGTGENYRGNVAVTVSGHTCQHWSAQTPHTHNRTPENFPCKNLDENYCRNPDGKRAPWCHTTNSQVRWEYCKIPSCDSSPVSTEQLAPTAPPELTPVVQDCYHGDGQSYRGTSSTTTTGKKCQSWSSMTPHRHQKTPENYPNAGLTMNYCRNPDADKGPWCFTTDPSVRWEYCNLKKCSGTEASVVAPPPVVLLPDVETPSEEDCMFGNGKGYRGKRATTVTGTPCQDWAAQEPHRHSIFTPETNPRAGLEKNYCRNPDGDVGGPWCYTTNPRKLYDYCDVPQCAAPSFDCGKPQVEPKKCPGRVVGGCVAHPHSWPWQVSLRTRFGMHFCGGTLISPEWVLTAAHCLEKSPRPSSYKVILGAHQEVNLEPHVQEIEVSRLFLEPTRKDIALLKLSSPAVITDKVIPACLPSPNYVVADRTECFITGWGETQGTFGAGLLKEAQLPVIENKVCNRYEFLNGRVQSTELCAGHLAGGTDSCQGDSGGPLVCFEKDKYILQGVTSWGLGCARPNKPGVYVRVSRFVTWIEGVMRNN

Take `CC(C)=CCC/C(C)=C/CC[C@]1(C)Oc2c(c(O)cc3c2CNC3=O)C[C@@H]1O` [SMTP-0]: the “action of enhancing the plasminogen activation” value on plasminogen [1] is reported as “did not indicate any action”. Also, the “action on the generation of plasminogen fragments having the angiogenesis inhibitory activity” value at plasminogen [2] is given as “did not exhibit any action”.

The values above are taken from patent US8110596B2, “Triprenyl phenol compound, process for production of triprenyl phenol compound, and thrombolysis enhancer” (Tokyo University of Agriculture and Technology TLO Co., Ltd., priority 2006, dated 2012).
